What was measured:
[1] = system: production of advanced glycation endproducts (bovine serum albumin + sugar mixture); assay: Inhibition of production of advanced glycation endproducts (BSA + fructose/glucose, fluorescence); assay type: biochemical
Experimental: As a protein source, bovine serum albumin (hereinafter, referred to as “BSA”; Sigma, USA) was used. BSA was dissolved in 50 mM phosphate buffer (pH 7.4) to a concentration of 10 mg/ml.
As a sugar source, a mixture of 0.1 M fructose and 0.1 M glucose was used.
This sugar mixture was added to the prepared BSA solution, for use in tests.
The herbal extract mixture prepared in Example 2 was dissolved in 15% Tween80, and this solution was added to the BSA-sugar mixture and cultured at 37° C. for 30 days. At this time, 0.02% sodium azide was used as an antibacterial agent.
As a control group, a culture consisting of BSA and the sugar mixture was cultured, and as blanks to the control and test groups, the materials for the test group and the materials for the control group were used after preparation without incubation.
In order to reduce errors to the lowest possible extent, 4 samples for each group were used. Just before culturing, the samples were filled with nitrogen gas (99.999% purity) in order to prevent them being contaminated. After 30 days, the content of advanced glycation endproducts in the culture media was analyzed. The advanced glycation endproducts are fluorescent, show a brown color, are crosslinkable, and have ligands which can be recognized by cellular membrane receptors. The amount of the advanced glycation endproducts with such properties was measured with a spectrophotometer (excitation at 350 nm and release at 450 nm) so as to determine the inhibition of production of the advanced glycation endproducts.
The inhibition (%) of production of advanced glycation endproducts was calculated according to the following equation: Inhibition (%) of production=100−[(fluorescent intensity of test group−fluorescent intensity of blank to test group)/(fluorescent intensity of control group−fluorescent intensity of blank to control group)]×100
The part (1) of this Example was repeated except that extract from each of Euphorbiae radix, gingered Magnolia bark, parched Puerariae radix and Glycyrrhizae radix was dissolved in 15% Tween80 and cultured for 90 days.
Magnolol was dissolved in distilled water at concentrations of 3.33 μg/ml, 6.66 μg/ml, 13.32 μg/ml and 26.6 μg/ml, and then cultured for 37° C. for 30 days in the same manner as in the above part (1).
aminoguanidine, a positive control group, was tested in the same manner as in the above part (1) except that aminoguanidine was dissolved in distilled water at selected concentrations and cultured for 30 days and 90 days.

[2] = system: streptozotocin diabetes-induced SD rats; assay: Streptozotocin diabetic rats: anti-cataract effect (eye lens opacity); assay type: in vivo, rat; details: for Eye lens's opacity (%): mean
Description: (§1) The test animals were divided into the following four groups: (1) a normal group administered with carboxymethyl cellulose (NC+CMC); (2) a diabetes-induced group administered with carboxymethylcellulose (DC+CMC); (3) a diabetes-induced group administered with the herbal extract mixture (DC+HMP); (4) and a diabetes-induced group administered with a positive control (Eparlestat) (DC+S11). The diabetes-induced groups each consisted of 9-10 animals, and the normal group consisted of 5-6 animals. The body weights of the animals were similar between the test groups.
(§2) The test animals were adapted to the animal room and then fasted overnight. Streptozotocin was dissolved in 0.1 M citrate buffer (pH 4.5), and just then, injected into the abdominal cavities of the fasted animals at a dose of 60 mg/kg. At 2 days after administering the streptozotocin solution, tail vein blood was sampled from the animals and examined for blood glucose level. Rats having a blood glucose level of more than […] were determined to be diabetes-induced rats.
(§3) For the two diabetes-induced groups other than the normal group, each of 1 g/kg of the herbal extract mixture (HMP) and 25 mg/kg of Epalrestat (S11) was dissolved in 1% CMC and administered orally to the rats by a sonde daily for 8 weeks.
From the eyeballs removed under a microscope, the eye lenses were separated and transferred onto 24-well plates each containing 2 ml of a saline solution. Then, the eye lenses were photographed with a digital camera. The opacity of the eye lenses was analyzed by the use of an imaging system program.
The eye lenses were photographed with a camera and measured for weight. Then, the eye lenses were placed in phosphate buffer (pH 6.9) and homogenized at 4° C. For use in the measurement of enzymatic activity, some of the homogenized solution was centrifuged at 3,000 rpm for 20 minutes, and the supernatant was collected and stored at −80° C. For use in the measurement of content of sorbitol, etc., the remaining homogenized solution was added with ZnSO4 and NaOH so as to remove protein, and centrifuged at 3,000 rpm for 20 minutes, and the supernatant was collected and stored at −80° C.
The results of visual observation for the eyeballs are shown in FIG. 9, and the results of camera observation for the eye lenses are shown in FIG. 10.

[3] = system: streptozotocin diabetes-induced SD rats; assay: Streptozotocin diabetic rats: body weight, feed and water intake; assay type: in vivo, rat
Description: Four-week-old SD male rats weighing 120-140 g were housed in cages at one animal for each cage and allowed for access to general solid food and water while adapting the animals to an animal room of this institute (the applicant).
as §1, §2
To examine a therapeutic effect against chronic diabetic complications, the rats was continued to maintain in diabetic conditions for 30 days. From day 31, the rats were administered with the drugs for 8 weeks.
Since the herbal extract mixture (HMP) and Epalrestat (S11) used in the tests are insoluble in water, they were dissolved in 1% carboxymethylcellulose before use. The normal group was administered with carboxylmethylcellulose so as to eliminate an effect caused by carboxylmethylcellulose.
as §3
After administering the samples during the administration period, the test animals were fasted for at least 15 hours at one day before autopsy, and then measured for body weight.
The body weight was measured every day, the feed intake was measured one time a week, and the water intake was measured every day.

[4] = system: streptozotocin diabetes-induced SD rats; assay: Streptozotocin diabetic rats: organ weight; assay type: in vivo, rat; details: oral daily 8 weeks
Description: as §1, §2, §3
One day before autopsy, the test animals were fasted for at least 15 hours and then measured for body weight. Then, the animals were anesthetized with ethyl ether, from which blood was collected via the abdominal aorta. Some of the collected blood was treated with heparin, and some of whole blood was centrifuged at 3,000 rpm and 4° C. for 15 minutes. From each of the blood samples, plasma was isolated and stored at −80° C. before use in data analysis.
The kidneys of the animals were removed after washing by perfusion and measured for weight. Next, the kidneys were separated into cortex and medulla, which were rapidly cooled and stored at −80° C. In addition, the liver, lungs, pancreas, spleen and heart were separated and measured for weight.

[5] = system: streptozotocin diabetes-induced SD rats; assay: Streptozotocin diabetic rats: biochemical factors in serum; assay type: in vivo, rat; details: oral daily 8 weeks; for Glucose level: plasma
Description: as §1, §2, §3
At two-week intervals up to before autopsy, blood was taken from the orbital veins and measured for plasma glucose level with a glucose kit. The plasma glucose level was measured at 500 nm UV by a glucose oxidase method.
BUN was determined by measuring absorbance at 580 nm by a urease-indophenol method.
Triglyceride content was quantified by measuring absorbance at 550 nm by an enzymatic method (POD).
Total cholesterol level was determined by measuring absorbance at 500 nm by an enzymatic method.
Creatinine was determined by measuring absorbance at 515 nm by a modified Jaffe's method.
Protein in serum was determined by BCA assay. Serum was reacted with a bicinchonicic acid solution of bicinchonicic acid, Na2CO3, NaHCO3 and C4H4O6Na2.2H2O in 0.1N NaOH and a 4% CuSO4.5H2O solution and then measured for absorbance at 562 nm.

[6] = diabetes-induced rats, oral daily 8 weeks

N=C(N)NN [Aminoguanidine, aminoguanidine]
Inhibition (%) of production of advanced glycation endproducts ([1]; bovine, 30 days, 27.5 μg/ml, pH 7.4): 45.78 ± 2.400%
Inhibition (%) of production of advanced glycation endproducts ([1]; bovine, 30 days, 55 μg/ml, pH 7.4): 55.43 ± 4.000%
Inhibition (%) of production of advanced glycation endproducts ([1]; bovine, 30 days, 110 μg/ml, pH 7.4): 73.52 ± 1.750%
Inhibition (%) of production of advanced glycation endproducts ([1]; bovine, 30 days, 550 μg/ml, pH 7.4): 96.41 ± 2.200%
IC50 (μg/ml), inhibition of production of advanced glycation endproducts ([1]; bovine, 30 days, pH 7.4): 34.90 µg/mL
Inhibition (%) of production of advanced glycation endproducts ([1]; bovine, 90 days, 27.5 μg/ml, pH 7.4): 39.647 ± 3.406%
Inhibition (%) of production of advanced glycation endproducts ([1]; bovine, 90 days, 110 μg/ml, pH 7.4): 65.714 ± 5.394%
IC50 (μg/ml), inhibition of production of advanced glycation endproducts ([1]; bovine, 90 days, pH 7.4): 30.80 µg/mL

CC(/C=C1\SC(=S)N(CC(=O)O)C1=O)=C\c1ccccc1 [Epalrestat (S11)]
Eye lens's opacity (%) [2, 6]: 37.38±13.56%
Animals with cataract symptoms in both eyeballs on the day of autopsy ([2]; visual observation of eyeballs, FIG. 9): four of seven
Feed intake compared to diabetes-induced group ([3]; oral daily 8 weeks): more feed than that of the diabetes-induced group
Water intake compared to diabetes-induced group ([3]; oral daily 8 weeks): more water than that of the diabetes-induced group
Increase in body weight ([3]; oral daily 8 weeks (HMP 1 g/kg, S11 25 mg/kg)): 129.21 g

CC(/C=C1\SC(=S)N(CC(=O)O)C1=O)=C\c1ccccc1 [Epalrestat]
Heart absolute weight [4]: 0.95 ± 0.11 g
Heart relative weight (%) [4]: 0.34 ± 0.03 %
Kidneys absolute weight [4]: 3.18 ± 0.30 g
Kidneys relative weight (%) [4]: 1.14 ± 0.11 %
Liver absolute weight [4]: 11.63 ± 1.08 g
Liver relative weight (%) [4]: 4.15 ± 0.40 %
Lungs absolute weight [4]: 1.55 ± 0.13 g
Lungs relative weight (%) [4]: 0.55 ± 0.06 %
Pancreas absolute weight [4]: 0.86 ± 0.11 g
Pancreas relative weight (%) [4]: 0.31 ± 0.05 %
Spleen absolute weight [4]: 0.54 ± 0.09 g
Spleen relative weight (%) [4]: 0.19 ± 0.02%
BUN [5]: 23.60 ± 5.15 mg/dL
Creatinin [5]: 1.22 ± 0.16 mg/dL
Total cholesterol [5]: 59.50 ± 13.88 mg/dL
Triglyceride [5]: 46.18 ± 8.26 mg/dL
Glucose level [5]: 197.94 mg/dL
Glucose level ([5]; listed as S11): 197.94 ± 76.66 mg/dL
Protein ([5]; serum, BCA assay): 10.79 ± 0.85 µg/µL
Eye lens's opacity (20 pixels/m^2) [2, 6]: 134.04 ± 45.00 20 pixels/m^2
Eye lens's opacity (%) ([2]; diabetes-induced rats, oral daily 8 weeks, listed as S11): 37.38 ± 13.56 %
Body weight, early stage ([3]; oral daily 8 weeks (HMP 1 g/kg, S11 25 mg/kg), early stage): 154.03 ± 45.46 g
Body weight, end stage ([3]; oral daily 8 weeks (HMP 1 g/kg, S11 25 mg/kg), end stage): 283.24 ± 42.60 g

C=CCc1ccc(O)c(-c2cc(CC=C)ccc2O)c1 [Magnolol, magnolol]
Inhibition (%) of production of advanced glycation endproducts ([1]; 3.33 μg/ml, cultured for 30 days): 36.36 ± 1.61%
Inhibition (%) of production of advanced glycation endproducts ([1]; 6.66 μg/ml, cultured for 30 days): 55.75 ± 2.11%
Inhibition (%) of production of advanced glycation endproducts ([1]; 13.32 μg/ml, cultured for 30 days): 77.05 ± 1.70%
Inhibition (%) of production of advanced glycation endproducts ([1]; 26.64 μg/ml, cultured for 30 days): 100%
IC50 (μg/ml), inhibition of production of advanced glycation endproducts ([1]; cultured for 30 days, 37° C.): 5.36 µg/mL
